In publication PMC10589072, “Evaluation of Potential Peptide-Based Inhibitors against SARS-CoV-2 and Variants of Concern” (BioMed Research International, 2023):
Where no end group is shown, it is not given here.

Key:
[1] = target: T1, SARS-CoV-2 spike S1 protein (Severe acute respiratory syndrome coronavirus 2, UniProt P0DTC2); experiment: biochemical; type: binding
T1 construct: The fluorescent dye NT647 was used to label the SARS-CoV-2 spike S1; purchased Sino Biological 40591-V08H

[2] = test system: 293T ACE-2 SSC22 cells (HEK 293T expressing ACE2 receptor)
Description: The cytotoxicity of the peptides was assessed using a viability assay. […] Cells with peptides were cultured for 3 days, after which cell viability was measured using an ATP assay (Promega, G9681).

What does the source list for “IDWQFWFHYDKWDHEWEDEWYQSS-NH2 [Peptide P25]”?
KD compared with ACE2-S protein affinity [1]: comparable to the observed affinity between the S protein and ACE2; Kd ([1]; 21°C, read-out: KD (constant of dissociation)): 42.2 nM; cytotoxicity ([2]; 0.125 to 4 mM, 72 hours, ATP assay, n = 3): low toxicity; cell viability ([2]; 72 h, 4 mM): 91-100%
